Measured values taken from patent US20230129359A1, “MUSCARINIC RECEPTOR 4 ANTAGONISTS AND METHODS OF USE” (Neurocrine Biosciences, Inc., priority 2020, published 2023).
Like-named read-outs stand apart in the source and are kept apart here.

Molecular target: T1, human M4 receptor (Homo sapiens, UniProt P08173)
T1 construct: expressed in transfected cells; host or cells: CHO cells
T1 sequence (P08173 1-479): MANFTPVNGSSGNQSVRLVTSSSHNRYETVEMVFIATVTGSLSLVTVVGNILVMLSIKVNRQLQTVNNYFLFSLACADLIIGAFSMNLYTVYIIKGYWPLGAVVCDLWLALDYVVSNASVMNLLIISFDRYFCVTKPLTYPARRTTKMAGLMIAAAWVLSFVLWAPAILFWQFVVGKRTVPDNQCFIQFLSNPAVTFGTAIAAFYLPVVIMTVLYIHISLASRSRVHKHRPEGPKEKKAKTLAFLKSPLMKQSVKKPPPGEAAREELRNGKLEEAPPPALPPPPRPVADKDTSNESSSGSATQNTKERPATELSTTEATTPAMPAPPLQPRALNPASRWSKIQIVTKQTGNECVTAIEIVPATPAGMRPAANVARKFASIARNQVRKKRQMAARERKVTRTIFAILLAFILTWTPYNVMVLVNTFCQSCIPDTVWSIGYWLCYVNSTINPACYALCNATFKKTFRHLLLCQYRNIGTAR
Test: Radioligand ([3H]N-methylscopolamine) binding assay, membranes from CHO cells expressing human M4 receptor
Procedure: Binding affinity (Ki) for the compounds was measured by inhibition of radioligand binding to membranes from CHO cells expressing human M4 receptor. Membranes were prepared by nitrogen cavitation and differential centrifugation as previously described (Hoare et al., Mol. Pharmacol. 2003 March; 63(3): 751-65). The radioligand employed was tritiated N-methylscopolamine, used at a concentration of 1.5 nM. A dose-response of twelve concentrations of compound was used, ranging from […]. The assay buffer was 50 mM HEPES, 100 mM NaCl, 5 mM MgCl2, 1 mM ethylenediaminetetraacetic acid, pH-adjusted to pH 7.4. Membranes, radioligand and compound were incubated together for 90 minutes at 37° C., in a total volume of 150 μL in a 96-well plate. Receptor-bound radioligand was then collected by harvesting the assay over glass fiber filters pretreated with polyethylenimine to trap the cell membranes, using rapid vacuum filtration. Harvesting and radioactivity counting was conducted as previously described (see, e.g., Hoare et al., Mol. Pharmacol. 2003 63(3):751-65); Erratum at Mol. Pharmacol. 2005 July; 68(1): 260).

[1] = Ki against human M4 receptor, membranes from CHO cells, tritiated N-methylscopolamine 1.5 nM, read-out: K

SMILES | Ki [1] [nM] | Ki [nM]
C[C@@H]1CN(c2ncc(F)cn2)C[C@H](C)N1C(=O)OC1CC2(C1)CN(Cc1ccccc1)C2 [Compound 157, 2-benzyl-2-azaspiro[3.3]heptan-6-yl (2R,6S)-4-(5-fluoropyrimidin-2-yl)-2,6-dimethylpiperazine-1-carboxylate] | < 10 | –
C[C@@H]1CN(c2ncc(F)cn2)C[C@@H](C)N1C(=O)OC1CC2(C1)CN(Cc1ccccc1)C2 [Compound 158, 2-benzyl-2-azaspiro[3.3]heptan-6-yl (2R,6R)-4-(5-fluoropyrimidin 2-yl)-2,6-dimethylpiperazine-1-carboxylate] | 100 to 1000 | –
C[C@@H]1CN(c2ncc(C#N)cn2)C[C@@H](C)N1C(=O)OC1CC2(C1)CN(Cc1ccccc1)C2 [Compound 159, 2-benzyl-2-azaspiro[3.3]heptan-6-yl (2R,6R)-4-(5-cyanopyrimidin-2-yl)-2,6-dimethylpiperazine-1-carboxylate] | 100 to 1000 | –
C[C@@H]1CN(c2ccc([N+](=O)[O-])cn2)C[C@H](C)N1C(=O)OC1CC2(C1)CN(Cc1ccccc1)C2 [Compound 163, 2-benzyl-2-azaspiro[3.3]heptan-6-yl (2R,6S)-2,6-dimethyl-4-(5-nitropyridin-2-yl)piperazine-1-carboxylate] | 10 to 100 | –
C[C@@H]1CN(c2ccc([N+](=O)[O-])cn2)C[C@@H](C)N1C(=O)OC1CC2(C1)CN(Cc1ccccc1)C2 [Compound 164, 2-benzyl-2-azaspiro[3.3]heptan-6-yl (2R,6R)-2,6-dimethyl-4-(5-nitropyridin-2-yl)piperazine-1-carboxylate] | 100 to 1000 | –
C[C@@H]1CN(c2cncc(C(F)(F)F)n2)C[C@@H](C)N1C(=O)OC1CC2(C1)CN(Cc1ccccc1)C2 [Compound 166, 2-benzyl-2-azaspiro[3.3]heptan-6-yl (2R,6R)-2,6-dimethyl-4-[6-(trifluoromethyl)pyrazin-2-yl]piperazine-1-carboxylate] | 100 to 1000 | –
O=C(OC1CC2(C1)CN(Cc1ccccc1)C2)N1C2COCC1CN(c1ncc(C(F)(F)F)cn1)C2 [Compound 167, 2-benzyl-2-azaspiro[3.3]heptan-6-yl 7-[5-(trifluoromethyl)pyrimidin-2-yl]-3-oxa-7,9-diazabicyclo[3.3.1]nonane-9-carboxylate] | 10 to 100 | –
O=C(OC1CC2(C1)CN(Cc1ccccc1)C2)N1C2COCC1CN(c1cnc(C(F)(F)F)cn1)C2 [Compound 168, 2-benzyl-2-azaspiro[3.3]heptan-6-yl 7-[5-(trifluoromethyl)pyrazin-2-yl]-3-oxa-7,9-diazabicyclo[3.3.1]nonane-9-carboxylate] | – | 100 to 1000
CSc1nc(N2C[C@@H](C)N(C(=O)OC3CC4(C3)CN(Cc3ccccc3)C4)[C@@H](C)C2)ncc1Br [Compound 169, 2-benzyl-2-azaspiro[3.3]heptan-6-yl (2R,6S)-4-[5-bromo-4-(methylsulfanyl)pyrimidin-2-yl]-2,6-dimethylpiperazine-1-carboxylate] | 10 to 100 | –
CSc1nc(N2C[C@@H](C)N(C(=O)OC3CC4(C3)CN(Cc3ccccc3)C4)[C@H](C)C2)ncc1Br [Compound 170, 2-benzyl-2-azaspiro[3.3]heptan-6-yl (2R,6R)-4-[5-bromo-4-(methylsulfanyl)pyrimidin-2-yl]-2,6-dimethylpiperazine-1-carboxylate] | 10 to 100 | –
COC(=O)c1cnc(N2C[C@@H](C)N(C(=O)OC3CC4(C3)CN(Cc3ccccc3)C4)[C@H](C)C2)nc1C(F)(F)F [Compound 171, methyl 2-[(3R,5R)-4-[({2-benzyl-2-azaspiro[3.3]heptan-6-yl}oxy)carbonyl]-3,5-dimethylpiperazin-1-yl]-4-(trifluoromethyl)pyrimidine-5-carboxylate] | < 10 | –
C[C@@H]1CN(c2cnc3ccccc3n2)C[C@H](C)N1C(=O)OC1CC2(C1)CN(Cc1ccccc1)C2 [Compound 172, 2-benzyl-2-azaspiro[3.3]heptan-6-yl (2R,6S)-2,6-dimethyl-4-(quinoxalin-2-yl)piperazine-1-carboxylate] | 10 to 100 | –
COc1ccc2nc(N3C[C@@H](C)N(C(=O)OC4CC5(C4)CN(Cc4ccccc4)C5)C[C@@H]3C)cnc2c1 [Compound 173, 2-benzyl-2-azaspiro[3.3]heptan-6-yl (2R,5S)-4-(6-methoxyquinoxalin-2-yl)-2,5-dimethylpiperazine-1-carboxylate] | 10 to 100 | –
Cc1nc(C#N)cnc1N1C[C@@H](C)N(C(=O)OC2CC3(C2)CN(Cc2ccccc2)C3)[C@@H](C)C1 [Compound 181, 2-benzyl-2-azaspiro[3.3]heptan-6-yl (2R,6S)-4-(5-cyano-3-methylpyrazin-2-yl)-2,6-dimethylpiperazine-1-carboxylate] | 100 to 1000 | –
C[C@@H]1CN(c2cnc3ccccc3n2)C[C@@H](C)N1C(=O)OC1CC2(C1)CN(Cc1ccccc1)C2 [Compound 185, 2-benzyl-2-azaspiro[3.3]heptan-6-yl (2R,6R)-2,6-dimethyl-4-(quinoxalin-2-yl)piperazine-1-carboxylate] | 100 to 1000 | –
C[C@@H]1CN(c2cnc3ccccc3n2)[C@@H](C)CN1C(=O)OC1CC2(C1)CN(Cc1ccccc1)C2 [Compound 187, 2-benzyl-2-azaspiro[3.3]heptan-6-yl (2R,5S)-2,5-dimethyl-4-(quinoxalin-2-yl)piperazine-1-carboxylate] | < 10 | –
C[C@@H]1CN(c2ncccc2C(F)(F)F)C[C@@H](C)N1C(=O)OC1CC2(C1)CN(Cc1ccccc1)C2 [Compound 190, 2-benzyl-2-azaspiro[3.3]heptan-6-yl (2R,6R)-2,6-dimethyl-4-[3-(trifluoromethyl)pyridin-2-yl)piperazine-1-carboxylate] | 100 to 1000 | –
C[C@@H]1CN(c2ccc(C(F)(F)F)nc2)C[C@H](C)N1C(=O)OC1CC2(C1)CN(Cc1ccccc1)C2 [Compound 191, 2-bnezyl-2-azaspiro[3.3]heptan-6-yl (2R,6S)-2,6-dimethyl-4-[6-(trifluoromethyl)pyridin-3-yl]piperazine-1-carboxylate] | 10 to 100 | –
C[C@@H]1CN(c2cncc(C(F)(F)F)n2)[C@@H](C)CN1C(=O)OC1CC2(C1)CN(Cc1ccccc1)C2 [Compound 194, 2-benzyl-2-azaspiro[3.3]heptan-6-yl (2R,5S)-2,5-dimethyl-4-[6-(trifluoromethyl)pyrazin-2-yl]piperazine-1-carboxylate] | 100 to 1000 | –
COc1ccc2nc(N3C[C@@H](C)N(C(=O)OC4CC5(C4)CN(Cc4ccccc4)C5)C[C@H]3C)cnc2c1 [Compound 201, 2-benzyl-2-azaspiro[3.3]heptan-6-yl (2R,5R)-4-(6-methoxyquinoxalin-2-yl)-2,5-dimethylpiperazine-1-carboxylate] | 100 to 1000 | –
C[C@@H]1CN(c2cnc(OC(F)(F)F)cn2)C[C@H](C)N1C(=O)OC1CC2(C1)CN(Cc1ccccc1)C2 [Compound 202, 2-benzyl-2-azaspiro[3.3]heptan-6-yl (2R,6S)-2,6-dimethyl-4-[5-(trifluoromethoxy)pyrazin-2-yl]piperazine-1-carboxylate] | < 10 | –
C[C@@H]1CN(c2cnc(OC(F)(F)F)cn2)C[C@@H](C)N1C(=O)OC1CC2(C1)CN(Cc1ccccc1)C2 [Compound 203, 2-benzyl-2-azaspiro[3.3]heptan-6-yl (2R,6R)-2,6-dimethyl-4-[5-(trifluoromethoxy)pyrazin-2-yl]piperazine-1-carboxylate] | < 10 | –
C[C@@H]1CN(c2cnc(OC(F)(F)F)cn2)[C@@H](C)CN1C(=O)OC1CC2(C1)CN(Cc1ccccc1)C2 [Compound 204, 2-benzyl-2-azaspiro[3.3]heptan-6-yl (2R,5S)-2,5-dimethyl-4-[5-(tifluoromethoxy)pyrazin-2-yl]piperazine-1-carboxylate] | < 10 | –
C[C@@H]1CN(c2cnc(OC(F)(F)F)cn2)[C@H](C)CN1C(=O)OC1CC2(C1)CN(Cc1ccccc1)C2 [Compound 205, 2-benzyl-2-azaspiro[3.3]heptan-6-yl (2R,5R)-2,5-dimethyl-4-[5-(trifluoromethoxy)pyrazin-2-yl]piperazine-1-carboxylate] | 10 to 100 | –
C[C@@H]1CN(c2ncc3ccccc3n2)[C@@H](C)CN1C(=O)NC1CC2(C1)CN(Cc1ccccc1)C2 [Compound 212, (2R,5S)-N-{2-benzyl-2-azaspiro[3.3]heptan-6-yl}-2,5-dimethyl-4-(quinazolin-2-yl)piperazine-1-carboxamide] | < 10 | –
C[C@@H]1CN(c2ncc3ccccc3n2)CCN1C(=O)NC1CC2(C1)CN(Cc1ccccc1)C2 [Compound 213, (2R)-N-{2-benzyl-2-azaspiro[3.3]heptan-6-yl}-2-methyl-4-(quinazolin-2-yl)piperazine-1-carboxamide] | 10 to 100 | –
C[C@@H]1CN(c2cnc3ccccc3n2)C[C@H](C)N1C(=O)NC1CC2(C1)CN(Cc1ccccc1)C2 [Compound 214, (2R,6S)-N-{2-benzyl-2-azaspiro[3.3]heptan-6-yl}-2,6-dimethyl-4-(quinoxalin-2-yl)piperazine-1-carboxamide] | 10 to 100 | –
